Measurements as given in patent US20150038589A1, “Nutritional Product Comprising a Biguanide” (priority 2011, published 2015).

How the values were obtained:
[1] = Cookie comprising metformin consumed by human volunteers; blood samples; type: in vivo; conditions: one cookie (250 mg metformin); for concentration at 1 h / concentration at 2 h / concentration at 4 h / concentration at 0 h: human, blood, oral, 250 mg, empty stomach; for concentration at 1 h: 1 hr after consumption; for concentration at 2 h: 2 hrs after consumption; for concentration at 4 h: 4 hrs after consumption; for concentration at 0 h: before consumption
Procedure: A cookie dough was prepared comprising 1000 mg fine-ground metformin per 100 g conventional cookie dough, by mixing fine-ground metformin into the dough. 40 droplets of lemon juice per 100 g dough were added to the dough comprising the metformin, in order to neutralise the bitter taste of the metformin. Thereafter, the dough was divided in pieces of 25 g, from which pieces cookies were baked in a conventional way.
Human volunteers each consumed one cookie (providing 250 mg metformin) on an empty stomach. Blood samples were taken before consumption, 1 hour after consumption, 2 hours after consumption and 4 hours after consumption.

[2] = Stability test of metformin in yoghurt (pH and metformin content); type: physicochemical
Procedure: Yoghurt is prepared as described in Example 3. A batch comprising no metformin (placebo), a batch comprising 200 mg metformin per 100 gram (low dosage) and a batch comprising 360 mg metformin (high dosage) were made.
Part of the batches were stored in a fridge (about 4° C.), other parts at room temperature (about 20° C.). Product stability was determined by measuring pH and the metformin content (measured amount as a percentage of the added amount), weekly for a period of 35 days. […] Stability at room temperature was determined for only 35 days. Tables 6 and 7 show the measured amount of metformin in both products comprising metformin (relative to calculated amount=100%). No metformin was measured in the placebo.

[3] = cited from earlier work
[4] = Clinical test: double-blind trial of yoghurt drink with added metformin, 6 weeks; conditions: for Hyperinsulinaemia Internationale Unit / fasting glucose: change after 42 days
[5] = up to 4 hours after consumption
[6] = Trial group I (n = 6), 250 mg metformin/day in yoghurt, after 42 days
[7] = Trial group I (n = 6), 250 mg metformin/day in yoghurt
[8] = Trial group II (n = 4), 450 mg metformin/day in yoghurt, after 42 days
[9] = Trial group II (n = 4), 450 mg metformin/day in yoghurt
[10] = subjects with the product of the invention, after 42 days

CN(C)C(=N)NC(=N)N [metformin, N,N-dimethylimidodicarbonimidic diamide]
concentration at 1 h ([1]; subject 1): < 0.5 µg/mL | concentration at 2 h ([1]; subject 1): 0.7 µg/mL | concentration at 4 h ([1]; subject 1): 0.8 µg/mL | concentration at 0 h ([1]; subject 1): < 0.5 µg/mL | concentration at 1 h ([1]; subject 2): < 0.5 µg/mL | concentration at 2 h ([1]; subject 2): < 0.5 µg/mL | concentration at 4 h ([1]; subject 2): 0.6 µg/mL | concentration at 0 h ([1]; subject 2): < 0.5 µg/mL | negative side-effects ([1]; during the experiment): no negative side-effects were observed | glucose levels in blood samples [1, 5]: no significant changes | lipid levels in blood samples [1, 5]: no significant changes | degradation of metformin in a fermented (acidic) product ([2]; 28 days (room temperature) or 35 days (refrigerator temperature)): no substantial degradation | storage stability in a nutritional product ([2]; metformin included in a nutritional product): at least 5 weeks | subjects with a reduction in B12 levels in blood ([3]; conventional dosage form such as a tablet): about 30% | subjects suffering from stomach complaints and diarrhoea ([3]; conventional pharmaceutical composition comprising biguanide (metformin)): roughly 30% | insulin resistance improvement (HOMA-2) [4, 6]: −0.13 | side-effects: abdominal pain (number of subjects) [4, 6]: 0 | side-effects: diarrhoea (number of subjects) [4, 6]: 0 | side-effects: fatigue (number of subjects) [4, 6]: 0 | side-effects: reflux (number of subjects) [4, 6]: 0 | side-effects: stomach pain (number of subjects) [4, 6]: 1 | side-effects: vertigo (number of subjects) [4, 6]: 0 | Δ waist size [4, 6]: −2.0 cm | Δ weight [4, 6]: -1.9 kg | Hyperinsulinaemia Internationale Unit [4, 7]: −1.4 Internationale Unit | fasting glucose [4, 7]: -0.12 mmol/L | insulin resistance improvement (HOMA-2) [4, 8]: −3.9 | side-effects: abdominal pain (number of subjects) [4, 8]: 0 | side-effects: diarrhoea (number of subjects) [4, 8]: 0 | side-effects: fatigue (number of subjects) [4, 8]: 0 | side-effects: reflux (number of subjects) [4, 8]: 0 | side-effects: stomach pain (number of subjects) [4, 8]: 0 | side-effects: vertigo (number of subjects) [4, 8]: 0 | Δ waist size [4, 8]: −3.1 cm | Δ weight [4, 8]: -1.9 kg | Hyperinsulinaemia Internationale Unit [4, 9]: −3.9 Internationale Unit | fasting glucose [4, 9]: -0.68 mmol/L | concentration at 24 h ([4]; both, human, blood, oral): < 0.25 µg/mL | subjects indicating a reduced appetite ([4]; out of 10 subjects in the trial group (1 in the placebo group)): 4 | reduction in waist size compared to the placebo [4, 10]: 2-3 fold | weight loss compared to the placebo [4, 10]: 3 fold | blood HDL concentration change ([4]; trial group I, after 42 days): No change | decrease in pulse ([4]; trial group I, after 42 days): −6 | blood HDL concentration change ([4]; trial group II (450 mg metformin per day), after 42 days): +0.12 | decrease in pulse ([4]; trial group II, after 42 days): −2
